In test [1] the target is T1, recombinant HIV reverse transcriptase (HIV RTR) (Human immunodeficiency virus type 1 group M subtype B, UniProt P04585).
T1 construct: recombinant HIV reverse transcriptase (HIV RTR)
Kind of test: Reverse transcriptase assay: incorporation of tritiated dGMP into acid-precipitable cDNA. The format is biochemical. The method, then:
The assay measures the incorporation of tritiated deoxyguanosine monophosphate by recombinant HIV reverse transcriptase (HIV RTR) (or other RT) into acid-precipitable cDNA at the Km values of dGTP and poly r(C).oligo d(G)12-18.
Thirty uL of a reaction mixture containing equal volumes of: 500 mM Tris.HCl (pH 8.2), 300 mM MgCl2, 1200 mM KCl, 10 mM DTT, 400 μg/mL poly r(c).oligo d(G) [prepared by dissolving 1.5 mg (25 U) poly r(C).oligo d(G) in 1.5 ml sterile distilled H2 O and diluting to 400 μg/ml], 0.1 μCi/μl [^3 H] dGTP, 160 μM dGTP, was added to 10 μl sterile distilled H2 O, 2.5 μl of potential inhibitor and 10 μL of 5 nM purified HIV RTR in tubes. The mixture was incubated at 37° C. for 45 minutes.
After incubation is complete, the tubes were cooled in ice for 5 minutes. Ice-cold 13% TCA containing 10 mM NaPPi (200 μl) are added and the mixture incubated on ice for 30 minutes. The precipitated cDNA is removed by filtration using presoaked glass filters [TCA, NaPPi ]. The precipitate is then washed with 1N HCl, 10 mM NaPPi. The filter discs are then counted in a scintillation counter.
Under these conditions [dGTP] and poly r(C).oligo d(G)12-18 each are approximately equal to the appropriate Km value. Approximately 5-6,000 cpm of [^3 H] GMP are incorporated into acid-precipitable material. The RT reaction is concentration- and time-dependent. […]

A further test relates to HIV-1 strain IIIb. Kind of test: Inhibition of virus spread in HIV-infected MT-4 cells (p24 antigen). Format: cell-based. The following applies: Human immunodeficiency virus 1, IIIB, MT4, 72 h, concentration giving greater than 95% reduction in p24 antigen production relative to untreated controls, 3 days incubation, read-out: cell culture inhibitory concentration (CIC95). As for the experimental part:
MT cells were infected at Day O at a concentration of 250,000 per ml with a 1:2000 dilution of HIV-1 strain IIIb stock (final 125 pg p24/ml; sufficient to yield ≤1% infected cells on day 1 and 25-100% on day 4). Cells were infected and grown in the following medium: RPMI 1640 (Whittaker BioProducts), 10% inactivated fetal bovine serum, 4 mM glutamine (Gibco Labs) and 1:100 Penicillin-Streptomycin (Gibco Labs).
The mixture was incubated overnight at 37° C. in 5% CO2 atmosphere.
Serial two-fold dilutions of compound were prepared in cell culture medium. At Day 1, aliquots of 125 μl of compound were added to equal volumes of HIV-infected MT-4 cells (50,000 per well) in a 96-well microtiter cell culture plate. Incubation was continued for 3 days at 37° C. in 5% CO2 atmosphere.
Using a multichannel pipettor, the settled cells were resuspended and a 125 μl harvested into a separate microtiter plate. […]
The concentration of HIV p24 antigen was measured by an enzyme immunoassay,described as follows. Aliquots of p24 antigen to be measured were added to microwells coated with a monoclonal antibody specific for HIV core antigen. […]
The cell culture inhibitory concentration (ClC95) for each compound is defined as that concentration which inhibited by greater than 95% the spread of infection, as assessed by a greater than 95% reduction in p24 antigen production relative to untreated controls.

pIC50: −log10 of the molar value.

As for `[O-][S+](Cc1[nH]c2ccccc2c1Sc1ccccc1)c1ccccc1` (stereo not drawn) [compound A, 2-Phenylsulfinylmethyl-3-phenylthioindole], in test [1] ([dGTP] and poly r(C).oligo d(G)12-18 at approximately Km, 37° C., 45 minutes, read-out: calculated IC50), the pIC50 is about 7.22. In addition, the “incorporation of tritiated deoxyguanosine monophosphate into acid-precipitable cDNA” value in test [1] (at the Km values of dGTP and poly r(C).oligo d(G)12-18) is on record as “inhibits this incorporation”. For the same molecule, the IC95 in the test with HIV-1 strain IIIb is about 100 nM.

These data come from US5124327A, “HIV reverse transcriptase” (Merck & Co., Inc., priority 1991, dated 1992).
